In ChEMBL document CHEMBL1201862, “PubChem BioAssay data set” (2004):
Activity calls are given as the source filed them.

Key:
[1] = growth suppression of PTEN-null colon cells, dose response, cell-based, HCT116 PTEN knockout (AID 1047); type: functional;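 further: HCT116 colon tumor cells with PTEN knocked out; cells exposed to compound for 60 hours before readout; potency for loss of cell viability measured by luminescence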
[2] = growth suppression of beta-catenin-knockout colon cells, dose response, cell-based, HCT116, human colon tumor (AID 1045); type: functional;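 further: HCT116 colon tumor cells with beta catenin knocked out; cells exposed to compound for 60 hours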
[3] = NIH-3T3 fibroblast cytotoxicity, dose response, cytotoxicity control, cell-based, fluorescence, Alamar Blue, secondary assay (AID 2327); type: functional;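 further: NIH-3T3 mouse fibroblasts cultured with fluconazole at 8 µg/mL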
[4] = Luminescence Cell-Based Dose Retest to Confirm Inhibitors of Cancer Stem Cells. [Related pubchem assays (depositor defined):AID2717, AID2721]; type: functional; details: Homo sapiens
[5] = C. albicans growth with fluconazole, confirmation, fluorescence, retest (AID 2467); type: functional, cell-based
[6] = system: H9c2; test: cells; type: functional, cell-based; details: Rattus norvegicus, H9c2, Myocardium;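 further: confirmatory concentration-response retest of ultra-high-throughput screening hits for modulation of myocardial damage; cell death induced by hydrogen peroxide oxidative stress; compound pretreatment for 60 min then peroxide exposure for 2 h; potency is for protecting the cells against peroxide damage rather than for killing them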
[7] = target: Cytochrome P450 3A4 (Homo sapiens, UniProt P08684);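 further: CYP3A4 tested as one member of a cytochrome P450 panel screen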
Sequence of Cytochrome P450 3A4 (P08684 whole entry): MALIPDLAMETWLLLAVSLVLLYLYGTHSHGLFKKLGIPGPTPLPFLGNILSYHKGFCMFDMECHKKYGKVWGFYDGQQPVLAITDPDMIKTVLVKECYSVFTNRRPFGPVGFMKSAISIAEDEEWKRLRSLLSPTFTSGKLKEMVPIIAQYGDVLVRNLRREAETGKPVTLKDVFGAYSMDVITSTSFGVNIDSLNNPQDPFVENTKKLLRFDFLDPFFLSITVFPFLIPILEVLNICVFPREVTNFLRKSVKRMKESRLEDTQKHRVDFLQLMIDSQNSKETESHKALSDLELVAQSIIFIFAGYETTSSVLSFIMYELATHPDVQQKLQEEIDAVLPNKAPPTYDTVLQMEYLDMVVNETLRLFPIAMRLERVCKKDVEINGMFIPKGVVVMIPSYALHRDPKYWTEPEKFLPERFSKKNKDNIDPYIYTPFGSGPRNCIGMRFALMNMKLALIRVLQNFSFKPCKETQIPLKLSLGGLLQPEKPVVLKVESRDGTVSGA

[8] = system: Streptococcus; test: Group A Streptococcus viability loss, dose response, counter-screen for streptokinase expression inhibitor project, luminescence, BacTiterGlo (AID 1915); type: functional, organism-based;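 further: potency for reduction of bacterial viability or growth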
[9] = system: Streptococcus sp. 'group A'; test: growth inhibition of control SK(-) GAS strain, dose response, counter-screen for streptokinase expression inhibitor project, luminescence, kanamycin, BacTiterGlo, confirmation (AID 1900); type: functional, organism-based
[10] = target: T1, Streptokinase A (Streptococcus pyogenes serotype M1, UniProt P10520); test: S. pyogenes streptokinase expression inhibitors, potency, dose response, plasminogen activation absorbance, OD405 (AID 1914); type: functional, Streptococcus pyogenes M1 GAS;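 further: secreted streptokinase activity via plasminogen activation per viability signal from cell pellet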
T1 sequence (P10520 whole entry): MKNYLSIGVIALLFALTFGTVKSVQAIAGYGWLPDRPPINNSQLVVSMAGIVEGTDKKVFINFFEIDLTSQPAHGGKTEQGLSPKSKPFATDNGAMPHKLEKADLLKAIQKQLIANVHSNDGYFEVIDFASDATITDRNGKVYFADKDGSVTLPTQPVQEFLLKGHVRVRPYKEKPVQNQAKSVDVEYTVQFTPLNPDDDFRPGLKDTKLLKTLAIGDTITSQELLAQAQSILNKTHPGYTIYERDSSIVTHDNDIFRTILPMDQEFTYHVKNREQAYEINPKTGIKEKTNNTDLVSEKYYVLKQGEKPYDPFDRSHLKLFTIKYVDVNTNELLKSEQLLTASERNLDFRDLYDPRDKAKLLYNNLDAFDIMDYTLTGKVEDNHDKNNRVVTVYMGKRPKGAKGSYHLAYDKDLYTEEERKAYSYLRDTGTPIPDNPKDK

[11] = Luminescence Cell-Based Dose Confirmation HTS to Identify Activators of 5'UTR Stem-Loop Driven Alpha-Synuclein mRNA Translation in H4 Neuroglioblastoma Cells. [Related pubchem assays: 1829 (Project Summary), 1814 (Primary HTS)]; type: functional
[12] = system: H4; test: Luminescence Cell-Based Dose Response HTS to Identify Activators of 5'UTR Stem-Loop Driven Prion Protein mRNA Translation in H4 Neuroglioblastoma Cells. [Related pubchem assays: 1829 (Project Summary), 1814 (Primary HTS)]; type: functional; details: Homo sapiens
[13] = Luminescence Cell-Based Dose Response HTS to Identify Activators of Luciferase Translation or Activity in H4 […] Cells. [Related pubchem assays: 1829 (Project Summary), 1814 (Primary HTS)]; type: functional
[14] = inhibitors of SNCA 5'UTR-driven reporter translation, confirmation, H4 neuroglioma cells, luminescence (AID 1988); type: functional, cell-based
[15] = Luminescence Cell-Based Dose Response HTS to Identify Inhibitors of 5'UTR Stem-Loop Driven Prion Protein mRNA Translation in H4 Neuroglioblastoma Cells. [Related pubchem assays: 1827 (Project Summary), 1813 (Primary HTS)]; type: functional
[16] = target: T2, Polyadenylate-binding protein 1 (Homo sapiens, UniProt P11940); test: PABP1 MLLE–PAM2 interaction inhibitors, dose response, miRNA deadenylation inhibitor project, biochemical, fluorescence polarization, Cy5-PAM2 peptide, secondary (AID 602260); type: functional; details: read-out: IC50_Mean
T2 sequence (P11940 whole entry): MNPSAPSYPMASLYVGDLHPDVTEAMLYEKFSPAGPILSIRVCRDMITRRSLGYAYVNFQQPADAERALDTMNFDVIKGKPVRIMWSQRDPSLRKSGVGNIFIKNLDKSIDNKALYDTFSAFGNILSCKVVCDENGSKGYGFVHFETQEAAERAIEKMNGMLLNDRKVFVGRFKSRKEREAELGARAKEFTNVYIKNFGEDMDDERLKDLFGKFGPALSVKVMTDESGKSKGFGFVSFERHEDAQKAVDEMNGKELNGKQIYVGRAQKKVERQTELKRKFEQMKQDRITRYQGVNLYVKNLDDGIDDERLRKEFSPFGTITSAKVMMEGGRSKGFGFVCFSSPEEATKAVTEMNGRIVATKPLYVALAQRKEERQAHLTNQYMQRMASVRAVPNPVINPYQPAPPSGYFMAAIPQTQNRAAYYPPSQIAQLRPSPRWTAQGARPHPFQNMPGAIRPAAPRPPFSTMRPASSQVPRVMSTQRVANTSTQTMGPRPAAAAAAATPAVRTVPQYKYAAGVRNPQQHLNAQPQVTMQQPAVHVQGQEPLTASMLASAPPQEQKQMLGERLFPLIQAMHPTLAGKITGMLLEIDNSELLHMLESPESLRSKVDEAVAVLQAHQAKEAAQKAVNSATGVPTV

[17] = target: T2, Polyadenylate-binding protein 1; test: PABP1 MLLE–PAM2 binding inhibitor potency, dose response, biochemical, fluorescence polarization, FITC-PAM2 peptide (AID 602259); type: functional; details: read-out: IC50_Mean
[18] = inhibitors of intracellular T. cruzi replication, confirmation, NIH3T3 host cells, beta-gal luminescence (AID 2044); type: functional, cell-based;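 further: intracellular parasites grown in NIH/3T3 mouse fibroblasts as host cells; luminescent beta-galactosidase reporter signal from transgenic T. cruzi replicating inside host cells; inhibitors lower the luminescence signal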
[19] = target: T3, Rac GTPase-activating protein 1 (Homo sapiens, UniProt Q9H0H5); test: MgcRacGAP GTPase-activating activity inhibitors, confirmation, biochemical, ADP Hunter fluorescence, primary and confirmatory (AID 624330); type: functional
T3 sequence (Q9H0H5 whole entry): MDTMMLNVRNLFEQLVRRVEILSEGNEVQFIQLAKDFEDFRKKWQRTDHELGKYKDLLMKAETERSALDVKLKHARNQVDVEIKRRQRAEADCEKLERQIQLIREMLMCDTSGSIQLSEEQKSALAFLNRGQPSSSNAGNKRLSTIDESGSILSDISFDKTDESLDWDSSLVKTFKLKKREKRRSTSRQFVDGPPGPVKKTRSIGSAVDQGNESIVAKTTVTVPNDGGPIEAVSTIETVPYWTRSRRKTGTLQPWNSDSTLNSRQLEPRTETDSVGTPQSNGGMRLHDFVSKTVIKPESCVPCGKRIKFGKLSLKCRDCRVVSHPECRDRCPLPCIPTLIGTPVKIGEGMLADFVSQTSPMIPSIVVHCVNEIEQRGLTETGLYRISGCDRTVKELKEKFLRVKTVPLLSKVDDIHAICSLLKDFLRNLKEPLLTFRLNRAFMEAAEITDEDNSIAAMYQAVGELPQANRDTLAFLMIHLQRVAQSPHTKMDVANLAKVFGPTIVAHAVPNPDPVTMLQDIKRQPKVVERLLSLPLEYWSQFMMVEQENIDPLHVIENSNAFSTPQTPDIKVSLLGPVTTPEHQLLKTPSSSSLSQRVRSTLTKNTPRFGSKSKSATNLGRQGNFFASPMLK

[20] = cytotoxicity toward NIH3T3 fibroblasts, dose response, counter-screen, cell-based, ATP luminescence, mouse fibroblasts (AID 2010); type: functional;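 further: cells exposed to compound for about 90 hours before reading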

Compound: Cc1cccc(Nc2nc(N)nc(CC(=O)CSc3ccc(Cl)cc3)n2)c1
- EC50 [1]: 56 µM (active)
- EC50 [2]: 35.6 µM (active)

Compound: Cc1ccc(C2(c3noc(CN4CCC(c5ccncc5)CC4)n3)CCCC2)cc1
- EC50 [3]: 19.7 µM (active)
- AC50 [4]: 0.772 µM (active)
- EC50 [5]: > 38 µM (not active)

Compound: O=C(COC(=O)c1c2c(nc3ccccc13)/C(=C/c1cccc([N+](=O)[O-])c1)CCC2)NC1CCS(=O)(=O)C1 (centres undefined)
- IC50 [6]: 11.1 µM (active)

Compound: CN(C(=O)CC(NC(=O)c1ccccc1)(c1ccccc1)c1ccccc1)c1ccccc1
- EC50 [3]: 30.5 µM (active)
- EC50 [5]: 4.72 µM (active)
- AC50 [7]: 0.708 µM (inconclusive)

Compound: COc1ccc(/C=C/C(=O)NC(=S)N2CCN(c3ccccc3OC)CC2)cc1
- EC50 [8]: > 150 µM (not active)
- EC50 [9]: > 150 µM (not active)
- EC50 [10]: > 150 µM (not active)
- EC50 [11]: 1.67 µM (active)
- EC50 [12]: 7.91 µM (active)
- EC50 [13]: > 120 µM (not active)

Compound: COc1ccc(Nc2nc(Nc3ccc(OC)cc3OC)nc(N3CCN(C)CC3)n2)c(OC)c1
- IC50 [6]: > 79 µM (inactive)

Compound: N#Cc1cc2cc3c(cc2nc1SCC(=O)N1CCOCC1)OCCO3
- EC50 [14]: 5.54 µM (active)
- EC50 [15]: > 120 µM (not active)

Compound: Cc1ccc([N+](=O)[O-])cc1NC(=S)NC(=O)c1cccnc1
- IC50 [16]: > 66 µM (inactive)
- IC50 [17]: > 66 µM (inactive)

Compound: Cc1ccc(N(CC(N)=O)C2SC(=O)N(Cc3ccccc3)C2=O)cc1 (centres undefined)
- IC50 [16]: > 66 µM (inactive)
- IC50 [17]: > 66 µM (inactive)

Compound: CCN(c1ccccc1)S(=O)(=O)c1ccc(Cl)c(NC(=O)CN(C)C2CCN(C)CC2)c1
- EC50 [3]: > 150 µM (inactive)
- EC50 [18]: 0.395 µM (active)
- EC50 [5]: 3.82 µM (active)
- IC50 [19]: 80.2 µM (active)
- EC50 [20]: > 60 µM (not active)

Compound: CC(=O)Nc1cccc(NC(=O)Cc2nc(-c3ccccc3)sc2-c2ccc(C)cc2)c1
- EC50 [1]: 17.1 µM (active)
- EC50 [2]: 16.6 µM (active)

Compound: Sc1ncnc2c1ncn2C1CCCO1 (centres undefined)
- IC50 [16]: > 66 µM (inactive)
- IC50 [17]: > 66 µM (inactive)

Compound: CN(C)c1cc2c3ccccc3n(C)c2cc1N
- IC50 [16]: > 66 µM (inactive)
- IC50 [17]: 22.8 µM (inactive)
- IC50 [19]: 12.7 µM (active)

Compound: O=C(NCCCCNC(=O)c1nc[nH]c1C(=O)Nc1cccc(Cl)c1)c1nc[nH]c1C(=O)Nc1cccc(Cl)c1
- IC50 [6]: > 79 µM (inactive)

Compound: O=C(N/N=C/c1cn(-c2ccccc2)nc1-c1cccnc1)c1cccnc1
- IC50 [6]: > 79 µM (inactive)

Compound: Cn1nc(C(F)(F)F)c(C(=O)Nc2cccc(C(F)(F)F)c2)c1SCc1ccc(Cl)cc1
- EC50 [1]: 22.4 µM (active)
- AC50 [4]: 6.27 µM (active)
- EC50 [2]: 26.7 µM (active)
